Target: Beta-2 adrenergic receptor (Homo sapiens, UniProt P07550)
Assay: Agonist activity at human recombinant beta2 adrenergic receptor expressed in CHO cells assessed as elevation in cAMP level after 1 hr by flashplate method

Beta-2 adrenergic receptor, sequence (P07550 whole entry): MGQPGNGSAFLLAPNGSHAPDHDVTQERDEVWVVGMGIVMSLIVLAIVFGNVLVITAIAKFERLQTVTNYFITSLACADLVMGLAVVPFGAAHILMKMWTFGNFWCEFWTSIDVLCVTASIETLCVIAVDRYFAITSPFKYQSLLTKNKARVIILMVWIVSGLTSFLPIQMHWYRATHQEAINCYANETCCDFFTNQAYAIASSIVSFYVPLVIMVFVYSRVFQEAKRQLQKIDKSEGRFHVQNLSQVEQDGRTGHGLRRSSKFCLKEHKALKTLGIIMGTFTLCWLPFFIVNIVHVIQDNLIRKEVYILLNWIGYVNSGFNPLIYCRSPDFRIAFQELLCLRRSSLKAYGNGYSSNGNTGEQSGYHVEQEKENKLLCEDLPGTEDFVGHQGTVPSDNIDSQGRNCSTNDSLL

EC50: 0.07 nM
SMILES: CC(C)(Cc1cccc(CC(=O)NCc2ccc(Cl)c(Cl)c2)c1)NC[C@H](O)c1ccc(O)c(NS(C)(=O)=O)c1 [(R)-N-(3,4-dichlorobenzyl)-2-(3-(2-(2-hydroxy-2-(4-hydroxy-3-(methylsulfonamido)phenyl)ethylamino)-2-methylpropyl)phenyl)acetamide]
